28 compounds from US4803223A (priority 1985, dated 1989) can be followed below.

Where two headings read alike, the source gives them in different places.

In one experiment the test system is P388 leukemia. Also on record: species or system CDF1-strain mice (male). Conditions: mouse, in vivo.
Experiment [1] deals with Ehrlich ascites carcinoma. In words: animal or person. In kind it is in vivo, mice (CD2F1-strain Swiss, female). As to conditions: Mus musculus, ip, 1440 h, read-out: T/C (%).
The subject of experiment [2] is Walker carcinosarcoma 256. Also on record: species or system Sprague-Dawley rats (male). As to conditions: rat, in vivo.

With `O=C(NCCF)Nc1ccc(N(CCF)CCF)cc1` [Compound 8], the “T/C (%)” value in the experiment with P388 leukemia (25 mg/kg) turned out to be 134%.
As for `CCN(CCCl)c1ccc(NC(=O)NCCCl)cc1` [Compound 10], the response vs control in vivo at 100 mg/kg in experiment [1] came out at 222%.
Still for that read-out and setting: with `CCCN(CCCl)c1cccc(NC(=O)NCCBr)c1` [Compound 11] the figure was 203%.
For the compound `CN(CCBr)c1ccc(NC(=O)NCCBr)cc1` [Compound 12], in experiment [2] (50 mg/kg), the “T/C (%)” value amounted to 329%.
Regarding `CC(C)N(CCBr)c1ccc(NC(=O)NCCCl)cc1` [Compound 13], the “T/C (%)” value with P388 leukemia (100 mg/kg) was 134%.
`CCCCCCN(CCCl)c1ccc(NC(=O)NCCF)cc1` [Compound 14]: in experiment [1], the response vs control in vivo at 50 mg/kg came out at 275%.
In the case of `CN(CCI)c1cccc(NC(=O)NCCI)c1` [Compound 15], the “T/C (%)” value in experiment [2] (150 mg/kg) is given as 220%.
In the case of `C=CCN(CCCl)c1ccc(NC(=O)NCCCl)cc1` [Compound 16], the response vs control in vivo at 150 mg/kg in experiment [1] is 235%.
Regarding `C#CN(CCCl)c1ccc(NC(=O)NCCBr)cc1` [Compound 17], the response vs control in vivo at 100 mg/kg in experiment [1] amounted to 294%.
With `O=C(NCCCl)Nc1ccc(N(CCl)CCCl)cc1` [Compound 18], in the experiment on P388 leukemia (25 mg/kg), the “T/C (%)” value is given as 154%.
As for `O=C(NCCCl)Nc1ccc(N(CCBr)CCCBr)cc1` [Compound 19], in experiment [2] (50 mg/kg), the “T/C (%)” value amounted to 329%.
Regarding `COCCN(CCCl)c1ccc(NC(=O)NCCCl)cc1` [Compound 20], the response vs control in vivo at 50 mg/kg in experiment [1] stood at 281%.
In the case of `CCSCCN(CCCl)c1ccc(NC(=O)NCCBr)cc1` [Compound 21], the “T/C (%)” value in experiment [2] (100 mg/kg) is on record as 207%.
`N#CCCN(CCCl)c1ccc(NC(=O)NCCI)cc1` [Compound 22]: the “T/C (%)” value in experiment [2] (50 mg/kg) is 256%.
On to `O=C(NCCF)Nc1ccc(N(CCCl)CCOc2ccccc2)cc1` [Compound 23], for which, in the experiment with P388 leukemia (50 mg/kg), the “T/C (%)” value is reported as 156%.
`CC=CCN(CCCl)c1cccc(NC(=O)NCCCl)c1` [Compound 24]: the response vs control in vivo at 150 mg/kg in experiment [1] worked out at 234%.
As for `C=CCCCN(CCCl)c1ccc(NC(=O)NCCCl)cc1` [Compound 25], in experiment [1], the response vs control in vivo at 100 mg/kg was 178%.
Take `CC(C)C=CCN(CCCl)c1ccc(NC(=O)NCCBr)cc1` [Compound 26]: in experiment [2] (200 mg/kg), the “T/C (%)” value came out at 216%.
`O=C(NCCCl)Nc1cccc(N(CC=CCCl)CCCl)c1` [Compound 27]: in experiment [1], the response vs control in vivo at 50 mg/kg came to 246%.
For the compound `C=CCC(CBr)N(CCBr)c1ccc(NC(=O)NCCBr)cc1` (stereo not shown) [Compound 28], in experiment [2] (25 mg/kg), the “T/C (%)” value was determined as 182%.
On to `C=CC(C#N)N(CCCl)c1ccc(NC(=O)NCCCl)cc1` (stereo not shown) [Compound 29], for which the “T/C (%)” value with P388 leukemia (25 mg/kg) came out at 187%.
For `CCCOC=CN(CCI)c1ccccc1NC(=O)NCCBr` [Compound 30], the response vs control in vivo at 200 mg/kg in experiment [1] came to 205%.
Turning to `CSC=CCN(CCCl)c1ccc(NC(=O)NCCCl)cc1` [Compound 31], the response vs control in vivo at 150 mg/kg in experiment [1] was determined as 184%.
As for `O=C(NCCCl)Nc1ccc(N(CCF)CCC=CCOc2ccccc2)cc1` [Compound 32], the “T/C (%)” value in the experiment on P388 leukemia (50 mg/kg) is 150%.
`C#CCN(CCCl)c1cccc(NC(=O)NCCCl)c1` [Compound 33]: in experiment [2] (200 mg/kg), the “T/C (%)” value turned out to be 169%.
Consider `C#CC(C)N(CCI)c1ccc(NC(=O)NCCF)cc1` (stereo not shown) [Compound 34], for which, in experiment [1], the response vs control in vivo at 150 mg/kg is 199%.
With `CC#CCCN(CCBr)c1ccc(NC(=O)NCCCl)cc1` [Compound 35], in experiment [1], the response vs control in vivo at 150 mg/kg worked out at 191%.
Turning to `C#CCCCCN(CCCl)c1ccc(NC(=O)NCCCl)cc1` [Compound 36], the response vs control in vivo at 100 mg/kg in experiment [1] is 186%.
